Where “and” joins values, the source holds several entries; their conditions need not be identical. Equal entries are not always repeated. Marks after values point to notes of the source that are not given here.

Test [1] relates to xylene-induced ear swelling in Kunming mice. Put plainly: Xylene-induced ear swelling in mice. It is filed as in vivo, mouse. As to conditions: 200 mg/kg (positive control) once daily for 5 days. The method, then: Kunming mice were used. The saline group was used as the blank control group, the aspirin group (200 mg/kg) as the positive control group, and the mPEG-HM-1 administration group as the experimental group. Mice were administered once daily for 5 consecutive days. The blank control group was given an equal volume of physiological saline. One hour after the last administration, 0.05 mL of xylene was applied to both sides of the right ear of the mice to cause inflammation, and the left ear was not coated as normal ears. After 2 h, the mice were sacrificed by dislocation, and the ears were cut along the auricle. Ear pieces were taken with a puncher, weighed, and the swelling degree and swelling rate were calculated. Swelling degree=right ear piece weight-left ear piece weight, swelling rate=(swelling degree/left ear piece weight)×100%. Statistical t-test was performed on the test results, *P<0.05 was a significant difference, and **P<0.01 was a very significant difference. See Table 31 to Table 34 for the results.

The subject of test [2] is Human Umbilical Vein Endothelial Cells (HUVEC). Put plainly: Transwell migration of HUVEC. The format is cell-based. As to conditions: 10 μg/mL, 24 h. The method, then: 10 mg/mL Matrigel was diluted 1:2 with HUVEC-specific medium, spread on a transwell chamber membrane, and air-dried at room temperature. HUVEC cells cultured in logarithmic growth phase were digested with trypsin digest, collected, washed twice with PBS, and resuspended in blank HUVECs-specific medium. The cells were counted under a microscope, and the cell concentration was adjusted to 1×10^5/mL. The test solutions of each group were prepared and diluted to 100 μL with a blank HUVECs-specific medium. The cells were seeded into a transwell chamber at 100 μL per well, and each set of test solution was added to the chamber. The cell culture was stimulated by adding 0.6 mL of endothelial cell culture medium containing 5% fetal bovine serum and 1% ECGS into a 24-well plate, and cultured at 5% CO2 for 24 hour at 37° c. Discard the culture medium in the well, fix it with 90% alcohol at room temperature for 30 minutes, 0.1% crystal violet for 10 min at room temperature, rinse with water, gently wipe off the unsprayed cells in the upper layer with a cotton swab, observe under microscope and select four fields to take pictures. Calculate migration inhibition (MI) according to the formula: […]
Ntest was the number of cell migration in the test group, and Ncontrol was the number of cell migration in the blank control group.
The test was repeated 3 times independently. The results obtained from the test were calculated as mean±SD, and a statistical T test was performed. *P<0.05 was a significant difference, and **P<0.01 was a very significant difference.

Test [3] deals with human retinal vascular endothelial cells (HRCEC). Put plainly: MTT proliferation of human retinal vascular endothelial cells. It is filed as cell-based. As to conditions: 10 μg/mL (positive control), 48 h. The method, then:
The activity of the angiogenesis inhibitor polypeptide to inhibit proliferation of human retinal vascular endothelial cells was examined by MTT assay. HRCEC cells were cultured in a 37° C., 5% CO2 incubator to a density of 90% or more, and collected by trypsinization. The cells were resuspended in the culture medium and counted under a microscope to adjust the cell concentration to 3.0×10^4 cells/mL. The cell suspension was inoculated into a 96-well plate at 100 μL per well and cultured overnight at 37° C. in a 5% CO2 incubator. After the cells were completely adhered, the angiogenesis inhibitor polypeptide was added as the administration group, and Avastin was used as the positive control group, and the culture media without any drug was used as a blank control group, and the culture media were diluted to each predetermined concentration. Each dilution was separately added to a 96-well plate at 100 μL per well and incubated for 48 h at 37° C. in a 5% CO2 incubator. 20 μL of 5 mg/mL MTT was added to each well of a 96-well plate and incubation was continued for 4 h. The medium was aspirated and dissolved in 100 μL of DMSO per well. […] The formula is as follows: PI (%)=1−administration group/negative group
The test was repeated 3 times independently. The results obtained by the test were expressed as mean±SD, and a statistical T test was performed. *P<0.05 was a significant difference, and **P<0.01 was a very significant difference.

The subject of the next test is mouse spleen lymphocytes. Put plainly: ConA-stimulated mouse spleen lymphocyte proliferation (MTT). The format is cell-based. As to conditions: 20 μg/mL, ConA 5 μg/mL, 48 h. The method, then:
Tris-NH4Cl was used to break the red blood cells, and the cells were allowed to stand in an ice water bath for 4 min, centrifuged (1000 rpm×5 min), the supernatant was discarded, and the cells were washed twice with sterile PBS. Finally, cells were suspended in RPMI 1640 medium (5 mL) supplemented with 10% calf serum, counted, adjusted to a cell concentration of 5×10^6/mL, and cultured in a 96-well culture plate The test group consisted of blank control group, concanavalin A (ConA) group, dexamethasone (Dex) group (0.02 mg/mL) and mPEG-HM-1 group. […] The cells were cultured in a 37° C. cell culture chamber for 48 h. After the completion of the culture, 20 μL of MTT was added to each well, and the culture was continued for 4 h. Finally, all the solutions in each well were discarded, 100 μL of DMSO was added to each well, and the mixture was shaken and detected by a microplate reader OD value at 570 nm, 5 parallels per hole.

The test system of test [4] is IL-1β production by mouse peritoneal macrophages. As to the kind of experiment: IL-1β production by mouse peritoneal macrophages (ELISA). As to conditions: 20 μg/mL, 48 h. It is filed as cell-based. As for the experimental part:
(1) IL-1β production: mice were intraperitoneally injected with 1 mL of broth (containing 6%) starch, and three days later, the mouse peritoneal macrophages were aseptically taken, washed twice with 1640 medium, and the cell concentration was adjusted to 2×10^6 cells/mL, inject into a 24-well culture plate, 1 mL per well, incubate for 3 hours in a cell culture incubator, shake once every 30 minutes, and allow the cells to fully adhere. Then, it was washed twice with the culture solution to remove unattached cells. The blank group was added with PBS, the positive group was added with the positive drug dexamethasone (Dex), the model group was not administered, to the experimental group was added low, medium and high three concentrations of mPEG-HM-1, and the culture was continued for 48 hours after the administration, 1000 r/min. Centrifuge for 15 min. The supernatant was taken as a sample for testing activity of IL-1β.
(2) Determination of IL-1β content: using R&D mouse IL-1β enzyme-linked immunosorbent assay kit, according to the kit instructions as follows: respectively, the tested samples and different concentrations of standard products, sealed with sealing tape the reaction well and incubated at 37° C. for 90 min; the plate was washed four times; the biotinylated antibody working solution (100 μL/well) was added, and the reaction well was sealed with sealing paper, incubated at 37° c. for 60 min; the plate was washed four times; Add the enzyme conjugate working solution (100 μL/well), seal the reaction well with sealing paper, incubate at 37° C. for 30 min; wash the plate four times; add color reagent (100 μL/well), incubate at 37° C. 10-20 min, add stop solution (100 μL/well), mix and measure OD450 value.

As to `CC(=O)Oc1ccccc1C(=O)O` [aspirin, reference compound], the Swelling in test [1] (2 h after xylene) was 3.07 ± 0.31** mg and 3.02 ± 0.41** mg and 3.01 ± 0.53** mg and 2.98 ± 0.53** mg. Besides, the “Inhibition rate” value in test [1] (ear swelling vs control) was 50.02% and 51.11% and 50.87% and 50.93%.

In the case of “Avastin: positive control in HUVEC migration and HRCEC proliferation tests [reference compound]”, in test [2], the “cell migration number (Mean ± SD)” value was 564.53 ± 60.36 and 560.64 ± 62.06 and 532.80 ± 60.06 and 572.06 ± 48.92; the “inhibition rate of HUVEC migration” value is 46.78%* and 45.92%* and 48.22%* and 47.62%*. For the same compound, in test [3] (HRCEC proliferation), the Inhibition rate was 65.83%** and 64.93%** and 65.71%** and 66.07%**. The “A570 nm-A630 nm” value in test [3] (HRCEC, MTT) is 0.4479 ± 0.08104 and 0.4636 ± 0.08322 and 0.4494 ± 0.08132 and 0.4518 ± 0.08013.

As for `C[C@@H]1C[C@H]2[C@@H]3CCC4=CC(=O)C=C[C@]4(C)[C@@]3(F)[C@@H](O)C[C@]2(C)[C@@]1(O)C(=O)CO` [Dex, dexamethasone, reference compound], in the test on mouse spleen lymphocytes, the “A570 nm/A630 nm” value was 0.3809 ± 0.1036 and 0.3832 ± 0.1042 and 0.3715 ± 0.1266 and 0.3905 ± 0.1094; the “Inhibition Rate of spleen lymphocyte proliferation” value was 44.66% and 45.92% and 43.72%. For the same compound, the inhibition at 20 µg/mL in the test with mouse spleen lymphocytes (Mus musculus, Lymphocyte, read-out: Inhibition Rate of spleen lymphocyte proliferation) came out at 44.8%. Besides, in test [4], the IL-1β is 361.03 ± 18.27 pg/mL and 368.23 ± 18.27 pg/mL and 361.45 ± 19.17 pg/mL and 359.92 ± 19.17 pg/mL; the “Inhibition Rate of IL-1β production” value was 60.24% and 60.58% and 60.97%. Also, the inhibition at 20 µg/mL in test [4] (Mus musculus, Peritoneal macrophage, read-out: Inhibition Rate of IL-1β production) came to 61.5%.

Values taken from patent publication US10869931B2, “Polyethylene glycol-modified angiogenesis inhibitor HM-1 and application thereof” (NANJING ANJI BIOLOGICAL TECHNOLOGY CO.,LTD, priority 2016, dated 2020).
